Source: patent publication US11318190B2, “Methods and compositions for treating liver disease” (UNITED STATES GOVERNMENT AS REPRESENTED BY THE DEPARTMENT …, priority 2017, dated 2022)

Columns and labels:
HHSteCs [1] = assay: HHSteCs incubated with biliary/IMCL supernatants with/without LY2109761, or with TGF-β1 (Example 2); format: cell-based, human
Description: (§1) Biliary supernatants were obtained from normal and BDL WT mice and Sct^−/−, SR^−/− and Sct^−/−/SR^−/− BDL mice as well as normal WT mice treated with saline or secretin. HHSteCs were incubated with the aforementioned biliary supernatants (containing different levels of TGF-β1) for 24 hr (in the absence or presence of LY2109761) before measuring the expression of senescence and fibrosis genes by real-time PCR. Furthermore, HHSteCs were incubated with the supernatant of large IMCLs treated for 0.2% bovine serum albumin (basal) or secretin (10 nM) with/without LY2109761 for 6 hr before measuring the mRNA expression of fibrosis and senescence genes. To provide direct evidence that TGF-β1 directly modulates fibrosis and senescence of IMCLs and HHSteCs, these cells were stimulated with TGF-β1 (10 nM) for 24 hr before measuring the expression of PCNA as well as fibrosis and senescence genes by real-time PCR.

HHSteCs [2] = assay: HHSteCs treated with cholangiocyte supernatants with/without LY2109761, TGF-β1 or r-VEGFA (Example 4); format: cell-based, human; conditions: 12 hr
Description: (§2) Cholangiocytes were obtained by immunoaffinity separation, Cholangiocytes were obtained by immunoaffinity separation as described herein above, using a monoclonal antibody (a gift from Dr. R. Faris, Brown University, Providence, R.I.) that is expressed by all intrahepatic cholangiocytes. Cell viability (greater than 97%) was assessed by trypan blue exclusion. HSCs were isolated by LCM as described herein above. Frozen liver sections (n=3, 10 μm thick) were incubated overnight with an antibody against desmin (marker of stellate cells). Following staining, desmin-positive HSCs were dissected from the slides by a LCM system Leica LMD7000 (Buffalo Grove, Ill.) and collected into a PCR tube before being analyzed. The RNA from HSCs was extracted with the Arcturus PicoPure RNA isolation kit (Thermo Fisher Scientific CO, Mountain View, Calif.). The in vitro studies were performed in our immortalized murine biliary cell lines (IMCLs) and human hepatic stellate cell lines (HHSteCs, Sciencell, Carlsbad, USA).
In biliary supernatants, the levels of TGF-β1 were measured by ELISA kits. HHSteCs were incubated with cholangiocyte supernatants from the selected groups of animals for 12 hr (in the absence or presence of LY2109761, 10 μM, a TGF-β1 receptor antagonist, Cayman Chemical, Ann Arbor, Mich.) before measuring the expression of VEGF-A and senescent and fibrosis genes by qPCR. To determine that Sct increases TGF-β1 levels by a microRNA 125b-dependent mechanism, IMCLs were treated with Sct (10 nM in the absence/presence of a microRNA 125b mimic precursor, 5 μM) for 12 hr before measuring TGF-β1 mRNA expression (by qPCR) and secretion by ELISA kits. To provide conclusive evidence that TGF-β1 directly modulates the function IMCLs and HHSteCs, these cells were stimulated with TGF-β1 (10 nM) for 12 hr before measuring the expression of VEGF-A and senescent and fibrosis genes by qPCR. […] We also evaluated by immunofluorescence the expression of VEGFR-2 in cell smears of IMCLs and HHSteCs. […]

large IMCLs = assay: Large IMCLs treated with secretin with/without LY2109761, or with TGF-β1 (Example 2); format: cell-based, mouse
Description: Cholangiocytes were obtained by immunoaffinity separation as described herein above, using a monoclonal antibody (a gift from Dr. R. Faris, Brown University, Providence, R.I.) that is expressed by all intrahepatic cholangiocytes. HSCs from the selected groups of mice were isolated by LCM as described previously in Wu, N et al., The secretin/secretin receptor axis modulates liver fibrosis through changes in transforming growth factor-beta1 biliary secretion in mice, Hepatology (Baltimore, Md.) 64(3):865-879 (2016). Briefly, frozen liver sections (n=3, 10 μm thick) were incubated overnight with an anti-desmin (a marker of stellate cells) antibody. Then, desmin-positive cells were dissected from the slides using a LCM system Leica LMD7000 (Buffalo Grove, Ill.) and were collected before RNA extraction with the Arcturus PicoPure RNA isolation kit (Thermo Fisher Scientific CO, Mountain View, Calif.). The in vitro studies were performed in: (I) immortalized murine cholangiocyte lines derived from large cholangiocytes lining large ducts (IMCLs); and (ii) human hepatic stellate cell lines (HHSteCs; ScienCell Research Laboratories, Carlsbad, Calif.).
WT mice were treated for 1 wk with saline or secretin (Sct; 2.5 nmoles/kg body weight per day) before collecting cholangiocytes, HSCs and cholangiocyte supernatants. The levels of TGF-β1 were measured in short-term (6-hour) cultures of cholangiocytes by ELISA kits. Subsequently, we measured: (i) liver fibrosis by immunofluorescence for Col1a1 in liver sections and real-time PCR for TGF-β1, TFG-β1R, Col1a1, α-SMA and Fn1 in cholangiocytes and HSCs; and (ii) cellular senescence by immunofluorescence in liver sections for p16 and real-time PCR for p16 and p21 in cholangiocytes and HSC.
as §1

TGF-β receptor type II = TGF-β receptor type II (Homo sapiens, UniProt P37173); conditions: cited from earlier work
Chain of TGF-β receptor type II (P37173 23-567): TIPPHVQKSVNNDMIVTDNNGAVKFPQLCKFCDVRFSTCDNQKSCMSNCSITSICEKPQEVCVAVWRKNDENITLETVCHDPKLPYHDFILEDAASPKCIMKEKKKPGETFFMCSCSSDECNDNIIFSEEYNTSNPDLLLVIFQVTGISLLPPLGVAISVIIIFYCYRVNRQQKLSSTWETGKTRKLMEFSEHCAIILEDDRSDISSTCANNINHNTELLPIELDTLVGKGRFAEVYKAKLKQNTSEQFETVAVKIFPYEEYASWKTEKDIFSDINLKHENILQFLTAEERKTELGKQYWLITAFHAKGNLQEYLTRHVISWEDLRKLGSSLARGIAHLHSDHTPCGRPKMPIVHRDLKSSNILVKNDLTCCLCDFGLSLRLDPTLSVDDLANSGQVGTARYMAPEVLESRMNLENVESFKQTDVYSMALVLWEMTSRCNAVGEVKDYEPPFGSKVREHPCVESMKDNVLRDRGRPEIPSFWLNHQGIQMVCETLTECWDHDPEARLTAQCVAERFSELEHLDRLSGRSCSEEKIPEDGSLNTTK

IMCLs = IMCLs treated with Sct with/without microRNA 125b mimic precursor, TGF-β1 or r-VEGFA (Example 4); format: cell-based, mouse; conditions: TGF-β1 10 nM or r-VEGFA 100 nM, 12 hr
Description: as §2
In biliary supernatants, the levels of TGF-β1 were measured by ELISA kits. […] We also evaluated by immunofluorescence the expression of VEGFR-2 in cell smears of IMCLs and HHSteCs. […]

Compound	effect of preincubation on fibrosis/senescence gene changes in HHSteCs (HHSteCs [1]; before supernatant from secretin-treated WT mice)	effect of preincubation on fibrosis/senescence gene changes of HHSteCs (HHSteCs [1]; supernatant of secretin-treated large IMCLs)	effect of preincubation on VEGF-A, fibrosis and senescence gene changes in HHSteCs (HHSteCs [2]; LY2109761 10 μM, cholangiocyte supernatants from Mdr2−/− mice)	effect of preincubation on secretin-induced TGF-β1 secretion and fibrosis/senescence genes of large IMCLs (large IMCLs; LY2109761 10 nM)	Ki (TGF-β receptor type II) [nM]	fibrosis gene expression in HHSteCs (HHSteCs [1]; direct TGF-β1 10 nM, 24 hr)	senescence gene expression in HHSteCs (HHSteCs [1]; direct TGF-β1 10 nM, 24 hr)	expression of VEGF-A, fibrosis genes in HHSteCs (HHSteCs [2]; TGF-β1 10 nM or r-VEGFA 100 nM)	senescence genes in HHSteCs (HHSteCs [2]; TGF-β1 10 nM or r-VEGFA 100 nM)	expression of VEGF-A, fibrosis and senescence genes in IMCLs (IMCLs)	PCNA mRNA expression of large IMCLs (large IMCLs; TGF-β1 10 nM, 24 hr)	expression of fibrosis and senescence genes of large IMCLs (large IMCLs; TGF-β1 10 nM, 24 hr)
c1ccc(-c2nn3c(c2-c2ccnc4cc(OCCN5CCOCC5)ccc24)CCC3)nc1 [LY2109761]	reversed	reversed	reversed	prevented	300	–	–	–	–	–	–	–
TGF-β1: transforming growth factor-β1 used to stimulate IMCLs and HHSteCs (10 nM)	–	–	–	–	–	stimulates	reduces	increased	decreased	increased	decreased	increased
